Values quoted from earlier work in patent publication US20230226058A1, “METHODS AND COMPOSITIONS FOR TREATING ACUTE KIDNEY INJURY” (CalciMedica, Inc., priority 2020, published 2023).

System: AKI rats

**Q.** What does the source list for Cc1nnsc1C(=O)Nc1ccc(-n2nc(C(F)(F)F)cc2C(F)(F)F)cc1 [YM58483/BPT2]?
**A.** infiltration of total CD4+ T-cells, B-cells, and dendritic cells following I/R (AKI rats): attenuated; Total IL17 expressing cells (treated rats relative to vehicle treated rats): reduced
